Experimental data taken from the OPERA property sets (Mansouri et al. 2018).
Values after ≈ are worked out from the molar mass of the structure shown.

Settings: not given

Row | Structure (SMILES) | solubility [mM]
1 | COc1coc(CSP(=O)(OC)OC)cc1=O | 5350 (≈ 1500 mg/mL)
2 | OC[C@H]1O[C@H](OC[C@H]2O[C@H](O[C@]3(CO)O[C@H](CO)[C@@H](O)[C@@H]3O)[C@H](O)[C@@H](O)[C@@H]2O)[C@H](O)[C@@H](O)[C@H]1O | 402 (≈ 203 mg/mL)
3 | Cc1cccc(Br)c1 | 0.3 (≈ 0.0513 mg/mL)
4 | CCC(N)Cc1c[nH]c2ccccc12 (configuration not stated) | 2.71 (≈ 0.51 mg/mL)
5 | COc1cc(NS(=O)(=O)c2ccc(N)cc2)nc(OC)n1 | 1.11 (≈ 0.343 mg/mL)
6 | Cc1ccc(C(=O)O)cc1C | 0.86 (≈ 0.129 mg/mL)
7 | CC[C@H](Br)C(=O)O | 419 (≈ 70 mg/mL)
8 | O=C1c2ccccc2C(=O)c2c1ccc(O)c2O | 1.67 (≈ 0.4 mg/mL)
9 | Nc1nc(=O)c2[nH]c(=O)c(=O)[nH]c2[nH]1 | 0.00683 (≈ 0.00133 mg/mL)
10 | c1ccc2c(c1)-c1cccc3c1c-2cc1ccccc13 | 5.94e-06 (≈ 1.5e-06 mg/mL)
11 | CC(C)OC(=O)COc1ccc(Cl)cc1Cl | 0.142 (≈ 0.0373 mg/mL)

Same assay, conditions: 20 °C

Row | Structure (SMILES) | solubility [mM]
12 | Clc1c(Cl)c(Cl)c2c(c1Cl)Oc1c(Cl)c(Cl)c(Cl)c(Cl)c1O2 | 8.7e-10 (≈ 4e-10 mg/mL)
13 | C[C@H](O)C(=O)Nc1c(I)c(C(=O)NC(CO)CO)c(I)c(C(=O)NC(CO)CO)c1I | 180 (≈ 140 mg/mL)
14 | CCCCNC(=O)n1c(NC(=O)OC)nc2ccccc21 | 0.0131 (≈ 0.0038 mg/mL)
15 | CCOC(=O)CC | 188 (≈ 19.2 mg/mL)
16 | CCOP(=O)(OCC)SCC(=O)NC(C)(C)C#N | 238 (≈ 70 mg/mL)
17 | CC1CCCC(=O)C1 (configuration not stated) | 13.4 (≈ 1.5 mg/mL)
18 | CCNc1nc(NC(C)(C)C)nc(OC)n1 | 0.577 (≈ 0.13 mg/mL)
19 | O=C(O)[C@H]1CCCC[C@@H]1C(=O)O (relative stereo) | 11.6 (≈ 2 mg/mL)
20 | CC(C)CNC(=O)N1CCNC1=O | 7.02 (≈ 1.3 mg/mL)
21 | N[C@@H](Cc1ccc(O)c(O)c1)C(=O)O | 25.4 (≈ 5 mg/mL)
22 | COC(=O)c1ccc(OC)cc1 | 3.87 (≈ 0.643 mg/mL)
23 | Oc1cc(O)ncn1 | 22.3 (≈ 2.5 mg/mL)
24 | O=c1ccc2ccccc2[nH]1 | 7.25 (≈ 1.05 mg/mL)
25 | O=C(Nc1ccccc1)c1ccccc1I | 0.0619 (≈ 0.02 mg/mL)
26 | Cc1nc(NS(=O)(=O)c2ccc(N)cc2)oc1C | 6.27 (≈ 1.68 mg/mL)
27 | CCOP(=S)(NC(C)C)Oc1ccccc1C(=O)OC(C)C (configuration not stated) | 0.064 (≈ 0.0221 mg/mL)
28 | C=CC1CN2CCC1CC2C(=O)c1ccnc2ccc(OC)cc12 (configuration not stated) | 0.0093 (≈ 0.003 mg/mL)
29 | Clc1ccc(-c2ccc(Cl)c(Cl)c2)cc1 | 0.000279 (≈ 7.19e-05 mg/mL)
30 | O=c1nc[nH]c2nccnc12 | 33.8 (≈ 5 mg/mL)
31 | O=[N+]([O-])c1ccc(Cl)c(Cl)c1Cl | 0.115 (≈ 0.026 mg/mL)
32 | CC(C)C1=CC2=CC[C@@H]3[C@](C)(CCC[C@@]3(C)C(=O)O)[C@H]2CC1 | 0.16 (≈ 0.0484 mg/mL)
33 | O=[N+]([O-])c1cc(Cl)c(Cl)cc1Cl | 0.13 (≈ 0.0294 mg/mL)
34 | CC(=O)C=C(C)C | 294 (≈ 28.9 mg/mL)
35 | CC(=NO)C(C)=NO | 5.17 (≈ 0.6 mg/mL)

Same assay, conditions: 21 °C

Row | Structure (SMILES) | solubility [mM]
36 | CC12CCC(CC1)C(C)(C)O2 | 17.2 (≈ 2.65 mg/mL)
37 | NC(=S)c1c(Cl)cccc1Cl | 4.61 (≈ 0.95 mg/mL)
38 | O=C(O)CCCCCCCCCC(=O)O | 23.6 (≈ 5.1 mg/mL)
39 | CN(C)[C@@H]1C(O)=C(C(N)=O)C(=O)[C@@]2(O)C(O)=C3C(=O)c4c(O)ccc(Cl)c4[C@@H](O)[C@H]3C[C@@H]12 | 3.26 (≈ 1.52 mg/mL)
40 | CCOc1ccc(NC(N)=O)cc1 | 6.71 (≈ 1.21 mg/mL)

Same assay, conditions: 22 °C

Row | Structure (SMILES) | solubility [mM]
41 | O=[N+]([O-])c1ccc(Oc2ccc(Cl)cc2Cl)cc1 | 0.00352 (≈ 0.001 mg/mL)
42 | CNC(=O)ON=C(CSC)C(C)(C)C | 23.8 (≈ 5.2 mg/mL)
43 | CCSC(=O)N(CC(C)C)CC(C)C | 0.207 (≈ 0.045 mg/mL)

Same assay, conditions: 23 °C

Row | Structure (SMILES) | solubility [mM]
44 | C[C@]12CC[C@@H](O)C[C@@H]1CC[C@@H]1[C@@H]2CC[C@]2(C)C(=O)CC[C@@H]12 | 0.0461 (≈ 0.0134 mg/mL)
45 | O=c1[nH]cnc2nc[nH]c12 | 5.14 (≈ 0.7 mg/mL)

Same assay, conditions: 24 °C

Row | Structure (SMILES) | solubility [mM]
46 | CC(C)COC(=O)c1ccccc1C(=O)OCC(C)C | 0.0223 (≈ 0.0062 mg/mL)
47 | CC(CN1c2ccccc2Sc2ccccc21)N(C)C (configuration not stated) | 0.055 (≈ 0.0156 mg/mL)
48 | CCNP(=S)(OC)O/C(C)=C/C(=O)OC(C)C (configuration not stated) | 0.391 (≈ 0.11 mg/mL)
49 | O=C(O)c1c2ccccc2cc2ccccc12 | 0.382 (≈ 0.085 mg/mL)
50 | CC1CCCCC1C (configuration not stated) | 0.0748 (≈ 0.0084 mg/mL)
51 | Cc1c2ccccc2cc2c1ccc1ccccc12 | 4.54e-05 (≈ 1.1e-05 mg/mL)
52 | NC(=O)CCl | 962 (≈ 90 mg/mL)

Same assay, conditions: 25 °C

Row | Structure (SMILES) | solubility [mM]
53 | c1ccc2[nH]ccc2c1 | 30.4 (≈ 3.56 mg/mL)
54 | CC(C)CC(C)C | 0.0549 (≈ 0.0055 mg/mL)
55 | CC(C)(C)c1ccccc1 | 0.22 (≈ 0.0295 mg/mL)
56 | Clc1ccc2c(c1)Oc1ccccc1O2 | 0.00146 (≈ 0.000319 mg/mL)
57 | C[C@]12CCC(=O)C=C1CC[C@@H]1[C@@H]2CC[C@]2(C)C(=O)CC[C@@H]12 | 0.202 (≈ 0.0578 mg/mL)
